From patent US8232274B2, “Pyridazinone derivatives useful as glucan synthase inhibitors” (Albany Molecular Research, Inc., priority 2007, dated 2012) come the findings set out here.

The target in experiment [1] is T1, glucan synthase (Saccharomyces cerevisiae, UniProt P38631).
T1 construct: glucan synthase sources (2 μL permeabilized PM503 cells, or 3 μL membrane preparations from either PM503, BWP17, or ND158); endogenous in cells; host or cells: S. cerevisiae strain PM503, permeabilized cells or 100,000 g membrane fraction
T1 sequence (P06780 1-206): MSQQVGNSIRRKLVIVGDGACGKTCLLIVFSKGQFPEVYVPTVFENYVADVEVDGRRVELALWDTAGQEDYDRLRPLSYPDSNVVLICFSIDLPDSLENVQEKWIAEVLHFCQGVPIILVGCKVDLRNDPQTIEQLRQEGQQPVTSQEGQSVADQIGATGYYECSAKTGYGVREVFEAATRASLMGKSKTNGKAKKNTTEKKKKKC
T1 sequence (P38631 whole entry): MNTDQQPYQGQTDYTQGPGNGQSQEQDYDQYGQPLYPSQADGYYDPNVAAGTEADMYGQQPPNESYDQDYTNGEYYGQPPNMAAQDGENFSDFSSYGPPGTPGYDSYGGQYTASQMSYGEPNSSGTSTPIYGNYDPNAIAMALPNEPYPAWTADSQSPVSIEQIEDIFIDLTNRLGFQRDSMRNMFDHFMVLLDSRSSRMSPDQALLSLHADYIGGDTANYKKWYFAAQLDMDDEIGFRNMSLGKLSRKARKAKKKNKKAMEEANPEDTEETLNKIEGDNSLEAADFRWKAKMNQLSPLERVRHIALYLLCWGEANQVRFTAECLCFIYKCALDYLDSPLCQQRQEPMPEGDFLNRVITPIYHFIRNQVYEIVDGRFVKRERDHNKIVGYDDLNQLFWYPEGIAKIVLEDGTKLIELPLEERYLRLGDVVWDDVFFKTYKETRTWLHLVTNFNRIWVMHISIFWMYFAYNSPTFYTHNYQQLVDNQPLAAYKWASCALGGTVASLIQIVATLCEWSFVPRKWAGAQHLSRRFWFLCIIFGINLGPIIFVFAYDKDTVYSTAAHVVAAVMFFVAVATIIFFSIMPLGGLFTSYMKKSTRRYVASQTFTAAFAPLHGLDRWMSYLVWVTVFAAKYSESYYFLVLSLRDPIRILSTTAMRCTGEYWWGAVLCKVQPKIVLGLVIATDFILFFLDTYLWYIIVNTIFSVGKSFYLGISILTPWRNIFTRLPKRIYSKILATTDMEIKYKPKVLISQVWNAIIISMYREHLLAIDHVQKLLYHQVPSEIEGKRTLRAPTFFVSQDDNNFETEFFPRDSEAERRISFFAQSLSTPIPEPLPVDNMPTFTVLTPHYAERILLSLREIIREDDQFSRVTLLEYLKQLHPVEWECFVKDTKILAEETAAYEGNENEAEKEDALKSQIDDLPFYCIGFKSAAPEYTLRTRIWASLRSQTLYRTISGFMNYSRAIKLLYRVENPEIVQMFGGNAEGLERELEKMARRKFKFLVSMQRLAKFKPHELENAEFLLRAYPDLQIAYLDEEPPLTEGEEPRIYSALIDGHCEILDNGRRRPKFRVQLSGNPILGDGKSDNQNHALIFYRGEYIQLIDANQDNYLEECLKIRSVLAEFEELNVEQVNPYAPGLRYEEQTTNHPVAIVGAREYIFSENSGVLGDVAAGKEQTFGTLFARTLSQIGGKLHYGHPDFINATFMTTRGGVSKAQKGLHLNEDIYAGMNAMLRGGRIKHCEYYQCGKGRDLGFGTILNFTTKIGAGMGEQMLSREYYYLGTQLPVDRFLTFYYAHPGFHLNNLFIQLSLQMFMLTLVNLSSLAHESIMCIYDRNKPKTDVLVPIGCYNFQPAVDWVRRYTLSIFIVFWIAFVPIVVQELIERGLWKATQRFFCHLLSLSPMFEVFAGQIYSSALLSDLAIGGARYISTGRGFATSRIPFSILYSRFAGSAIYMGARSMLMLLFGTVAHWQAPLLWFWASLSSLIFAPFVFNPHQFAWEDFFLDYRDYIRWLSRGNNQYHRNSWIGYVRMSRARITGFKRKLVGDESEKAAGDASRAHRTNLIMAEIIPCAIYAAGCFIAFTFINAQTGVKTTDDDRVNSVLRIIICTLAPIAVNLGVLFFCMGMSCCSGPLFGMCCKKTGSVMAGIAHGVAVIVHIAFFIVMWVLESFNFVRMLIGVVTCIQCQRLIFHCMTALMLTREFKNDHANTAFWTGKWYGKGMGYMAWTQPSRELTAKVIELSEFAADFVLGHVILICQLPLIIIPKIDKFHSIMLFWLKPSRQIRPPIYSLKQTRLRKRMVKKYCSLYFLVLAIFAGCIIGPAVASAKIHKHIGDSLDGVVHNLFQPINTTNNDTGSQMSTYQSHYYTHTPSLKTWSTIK
The experiment is described as follows: β(1,3) glucan synthase assay, S. cerevisiae PM503 permeabilized cells or membrane preparation (IC50). Type of experiment: biochemical. As to the method:
(§1) β(1,3) Glucan Synthase Assay:
1. Preparation of Permeabilized Saccharomyces cerevisiae Cells.
Permeabilization of yeast cells was performed according to Crotti et al. (Analytical Biochemistry, 292, 8-16, 2001) with some modifications. A 10 ml-starter culture of the S. cerevisiae strain in YPD medium (1% yeast extract, 2% bacto-peptone, 2% dextrose) with OD600=3-4 was used to inoculate 1 liter of YPD. The culture was grown at 30° C. until […]. Cells were collected by centrifugation (5,300 g for 15 min at 4° C.) and resuspended in buffer (40 mM EDTA, 100 mM β-mercaptoethanol) at 1 g of cell pellet/3.5 ml buffer. The cell suspension was shaken for 30 min at 30° C., followed by centrifugation at 12,000 g for 10 min at 4° C. The cell pellet was washed with 5 ml 0.8 M sorbitol and resuspended in 6.8 ml of 2.9 mM citric acid, 11.3 mM dibasic sodium phosphate, 1 mM EDTA, 0.8 M sorbitol, with constant shaking at 30)C for 30 min. After centrifugation at 12,000 g for […] at 4° C., the pellet was resuspended in 31.3 ml 50 mM Tris-HCl, pH 7.0, and incubated on ice for 5 min. The mixture was then centrifuged at 12,000 g for 10 min at 4 AC, and the pellet was resuspended in 1 ml of 50 mM Tris-HCl and 33% glycerol, pH 7.5. The permeabilized cell preparation was stored at […] in aliquots.
(§2) 2. Preparation of Membrane Fraction of Yeast Cells
(§3) The protocol was modified from Douglas et al. (Journal of Bacteriology, 176, 5686-5696, 1994). For the preparation of S. cerevisiae and C. albicans membrane fractions, 1 liter of YPD supplemented with 0.02 mg/mL adenine and 0.08 mg/mL uracil was inoculated with 10 mL starter culture of PM503 (OD600=4) or the C. albicans strain BWP17 (OD600=12) in the same medium and grown at 30° C. until OD600 reached about 1. A. fumigatus (stain ND158) membranes were prepared by first preparing a spore suspension from agar slants by adding 6 mL of sterile saline, 0.1% Tween-20 solution to each slant, and resuspending by pipetting and scraping. The spore suspensions were used to inoculate two 200 mL flasks containing Sabouraud dextrose broth media. Cultures were incubated at 37° C., 250 rpm for ˜8 hrs. All cells, S. cerevisiae, C. albicans or A. fumigatus were harvested by centrifugation at 5,300 g at 4° C. for 40 minutes. After washing with 100 mL of breakage buffer (0.1 M KPi, pH 7.0, 1 mM EDTA, 1 mM DTT), the cell pellet was resuspended in 50 ml ice-cold breakage buffer. The mixture was transferred to a bead-beater chamber packed in ice (BioSpec Products, Bartlesville, Okla.). To each 50 mL sample was added 50 g of acid-washed glass beads ([…], Sigma). Cells were disrupted using 12×20 second pulses with 2 min-cooling intervals. Cell debris was removed by centrifugation at 3,000 g for 20 minutes at 4° C., and the supernatant was collected and centrifuged at 100,000 g for 1 hour at 4° C. to pellet the membrane fraction. The pellet was resuspended in 5 mL of ice-cold breakage buffer containing 25% glycerol, homogenized with a Dounce tissue homogenizer and stored at −80° C. in small aliquots.
(§4) 3. Glucan Synthase Assay and Compound Screening
The assay was performed according to Mo et at (Journal of Biological Chemistry, 269, 31267-31274, 1994) and Taft et al. (The Journal of Antibiotics, 47, 1001-1009, 1994), in a 96-well Optiplate (PerkinElmer). To each well was added 3 μL 10× compound stock (in 100% DMSO), or 3 μL of 30 μg/mL caspofungin in 100% DMSO (as positive control), or 3 μL 100% DMSO (as negative control), followed by the addition of appropriate amount of glucan synthase sources (2 μL permeabilized PM503 cells, or 3 μL membrane preparations from either PM503, BWP17, or ND158). The reaction was initiated by adding 25 μL reaction buffer (0.6 mM UDP-Glucose 0.6 nCi [U-^14C]DUP-Glucose (327 mCi/mmol, Amersham Bioscience), 20 μM GTP-γ-S, 25 mM NaF, 7.5 mg/mL BSA, 8% glycerol in 75 mM Tris-HCl, pH 7.5). […]

The target in experiment [2] is T2, glucan synthase (Candida albicans, UniProt O13428).
T2 construct: glucan synthase sources (2 μL permeabilized PM503 cells, or 3 μL membrane preparations from either PM503, BWP17, or ND158); endogenous in cells; host or cells: C. albicans strain BWP17, 100,000 g membrane fraction
T2 sequence (O13428 1-1897): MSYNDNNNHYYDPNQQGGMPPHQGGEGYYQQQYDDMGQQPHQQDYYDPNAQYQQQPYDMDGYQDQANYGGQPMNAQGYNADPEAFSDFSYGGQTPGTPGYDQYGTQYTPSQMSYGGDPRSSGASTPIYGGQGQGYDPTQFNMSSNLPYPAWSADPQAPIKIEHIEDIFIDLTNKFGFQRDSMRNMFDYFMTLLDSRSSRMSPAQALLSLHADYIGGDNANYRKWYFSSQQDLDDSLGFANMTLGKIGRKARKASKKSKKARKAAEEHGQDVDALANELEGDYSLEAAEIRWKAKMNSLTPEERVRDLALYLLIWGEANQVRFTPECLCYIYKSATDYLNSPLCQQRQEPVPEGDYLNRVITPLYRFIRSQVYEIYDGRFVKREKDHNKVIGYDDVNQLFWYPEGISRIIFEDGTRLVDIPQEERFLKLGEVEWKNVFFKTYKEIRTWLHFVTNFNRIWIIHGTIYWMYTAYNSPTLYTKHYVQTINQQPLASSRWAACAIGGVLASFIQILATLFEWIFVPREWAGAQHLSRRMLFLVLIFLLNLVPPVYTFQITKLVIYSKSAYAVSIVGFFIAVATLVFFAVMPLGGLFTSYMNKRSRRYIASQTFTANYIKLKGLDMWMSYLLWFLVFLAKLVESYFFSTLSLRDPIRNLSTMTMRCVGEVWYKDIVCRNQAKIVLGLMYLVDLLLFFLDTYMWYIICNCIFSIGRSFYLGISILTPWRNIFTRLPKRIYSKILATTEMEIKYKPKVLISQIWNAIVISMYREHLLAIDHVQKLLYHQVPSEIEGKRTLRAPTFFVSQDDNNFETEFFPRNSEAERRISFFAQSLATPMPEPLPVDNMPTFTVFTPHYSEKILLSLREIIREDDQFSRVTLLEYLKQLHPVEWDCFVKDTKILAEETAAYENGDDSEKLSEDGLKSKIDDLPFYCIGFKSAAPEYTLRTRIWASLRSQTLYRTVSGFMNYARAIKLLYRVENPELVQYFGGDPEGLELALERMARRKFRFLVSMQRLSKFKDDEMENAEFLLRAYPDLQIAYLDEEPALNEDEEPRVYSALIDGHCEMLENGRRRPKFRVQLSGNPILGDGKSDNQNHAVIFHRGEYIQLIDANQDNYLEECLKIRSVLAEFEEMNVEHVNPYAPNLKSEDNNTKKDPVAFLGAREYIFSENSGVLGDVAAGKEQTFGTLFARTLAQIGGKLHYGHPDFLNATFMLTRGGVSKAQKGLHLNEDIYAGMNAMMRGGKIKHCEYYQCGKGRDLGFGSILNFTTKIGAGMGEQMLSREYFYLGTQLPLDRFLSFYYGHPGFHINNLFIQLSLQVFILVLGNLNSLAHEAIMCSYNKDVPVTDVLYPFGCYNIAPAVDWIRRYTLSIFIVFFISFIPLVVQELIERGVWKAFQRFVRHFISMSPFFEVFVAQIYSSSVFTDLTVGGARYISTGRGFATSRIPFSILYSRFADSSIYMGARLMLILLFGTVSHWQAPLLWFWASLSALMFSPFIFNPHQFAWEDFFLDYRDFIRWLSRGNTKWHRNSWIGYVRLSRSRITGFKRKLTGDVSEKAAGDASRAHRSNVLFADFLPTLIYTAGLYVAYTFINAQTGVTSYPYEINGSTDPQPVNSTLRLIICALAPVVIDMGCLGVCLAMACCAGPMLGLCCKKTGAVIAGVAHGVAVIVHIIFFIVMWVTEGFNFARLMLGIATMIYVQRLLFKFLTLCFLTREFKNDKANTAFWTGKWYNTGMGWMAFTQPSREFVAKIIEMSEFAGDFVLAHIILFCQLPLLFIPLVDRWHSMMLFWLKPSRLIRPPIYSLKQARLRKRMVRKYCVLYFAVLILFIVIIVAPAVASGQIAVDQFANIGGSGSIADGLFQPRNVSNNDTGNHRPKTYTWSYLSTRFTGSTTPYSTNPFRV
T2 sequence (O42825 1-195 partner limits assumed): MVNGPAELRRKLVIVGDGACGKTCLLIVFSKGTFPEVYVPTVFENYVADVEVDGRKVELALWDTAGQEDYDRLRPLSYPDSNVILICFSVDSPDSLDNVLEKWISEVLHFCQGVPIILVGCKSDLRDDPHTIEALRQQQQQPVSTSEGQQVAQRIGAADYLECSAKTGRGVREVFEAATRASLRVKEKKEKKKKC
The experiment is described as follows: β(1,3) glucan synthase assay, C. albicans BWP17 membrane preparation (IC50). Type of experiment: biochemical. The conditions noted are these: in vitro fungal enzyme activity assay, read-out: IC50 (μg/mL) Candida albicans (converted). As to the method: as §1, §2, §3, §4
The assay was performed according to Mo et at (Journal of Biological Chemistry, 269, 31267-31274, 1994) and Taft et al. (The Journal of Antibiotics, 47, 1001-1009, 1994), in a 96-well Optiplate (PerkinElmer). To each well was added 3 μL 10× compound stock (in 100% DMSO), or 3 μL of 30 μg/mL caspofungin in 100% DMSO (as positive control), or 3 μL 100% DMSO (as negative control), followed by the addition of appropriate amount of glucan synthase sources (2 μL permeabilized PM503 cells, or 3 μL membrane preparations from either PM503, BWP17, or ND158). The reaction was initiated by adding 25 μL reaction buffer (0.6 mM UDP-Glucose 0.6 nCi [U-^14C]DUP-Glucose (327 mCi/mmol, Amersham Bioscience), 20 μM GTP-γ-S, 25 mM NaF, 7.5 mg/mL BSA, 8% glycerol in 75 mM Tris-HCl, pH 7.5). The plate was incubated on a shaker for 1.5 hour at room temperature before being quenched with 250 μL 1% TCA (Trichloroacetic Acid). The quenched reaction was mixed by pipetting, and immediately transferred to a 96-well filter plate (Glass fiber B on 0.65 μm hydrophilic durapore membrane, Millipore) pre-wetted with wash buffer (5% TCA, 60 mM NaPPi). The glucan product was retained on the filter membrane by applying vacuum to the plate using a MultiScreen Resist Vacuum Manifold (Millipore). The filter plate was further washed 4 times with 200 μL wash buffer. The plate was dried at 50° C. for 30 minutes. 100 μL of Microscint-0 (PerkinElmer) was added to each well, and plate was counted in a TopCount NXT plate reader (PerkinElmer).
Dose-response curves were plotted from inhibition data generated. IC50 was determined by fitting the CPM versus the Concentration of the test compound plot with the following equation (4-parameter logistic model, ID Business Solutions XLfit 4.2).

For `CC(C)(C)COc1c(N2CCN(S(=O)(=O)Cc3cccc(N)c3)CC2)cnn(-c2cc(F)cc(F)c2)c1=O` [1529Z-190], the figures for the IC50 on glucan synthase [1] and on glucan synthase [2] were 91.3 nM and 219 nM, respectively.
For `CC1(COc2c(N3CCN(S(=O)(=O)Cc4ccccc4)CC3)cnn(-c3cc(F)cc(F)c3)c2=O)CC1` [1529Z-191] the same measures were 207 nM and 37.7 nM.
With `O=c1c(OC2CCCC2)c(N2CCN(S(=O)(=O)NCc3ccccc3)CC2)cnn1-c1cc(F)cc(F)c1` [1629Z], the IC50 on glucan synthase [1] was 36.7 nM; on glucan synthase [2], 91.6 nM.
Take `COc1ccc(CNS(=O)(=O)N2CCN(c3cnn(-c4cc(F)cc(F)c4)c(=O)c3OCC3(C)CC3)CC2)cc1` [1633Z]: the IC50 at glucan synthase [1] was 139 nM; at glucan synthase [2] it was 86.9 nM.
`CC1(COc2c(N3CCN(S(=O)(=O)NCc4ccc(N)cc4)CC3)cnn(-c3cc(F)cc(F)c3)c2=O)CC1` [1634Z]: the IC50 is 303 nM at glucan synthase [1] and 196 nM on glucan synthase [2].
Taken in the same sequence, the figures for `CC1(COc2c(N3CCN(S(=O)(=O)NCc4ccc(Cl)nc4)CC3)cnn(-c3cccc(Cl)c3)c2=O)CC1` [1675Z] were 138 nM and 345 nM.
Taken in the same sequence, the figures for `Cc1ccc(CNS(=O)(=O)N2CCN(c3cnn(-c4cccc(Cl)c4)c(=O)c3OCC3(C)CC3)CC2)cc1N` [1683Z] were 140 nM and 122 nM.
Taken in the same sequence, the figures for `CC1(COc2c(N3CCN(S(=O)(=O)NCc4ccc(N)c(F)c4)CC3)cnn(-c3cccc(Cl)c3)c2=O)CC1` [1712Z] were 139 nM and 104 nM.
Regarding `Cc1ccc(CNS(=O)(=O)N2CCN(c3cnn(-c4cc(F)cc(F)c4)c(=O)c3OC3CCC(F)C3)CC2)cc1N` (centres unmarked) [1715Z], the IC50 against glucan synthase [1] was 169 nM; at glucan synthase [2] it was 523 nM.
For `CC1(COc2c(N3CCN(S(=O)(=O)NCc4ccc(F)cc4)CC3)cnn(-c3cc(F)cc(F)c3)c2=O)CC1` [1734Z] the same measures were 106 nM and 231 nM.
Taken in the same sequence, the figures for `O=c1c(OCC2(CF)CC2)c(N2CCN(S(=O)(=O)NCc3ccc4ncoc4c3)CC2)cnn1-c1cccc(Cl)c1` [1743Z] were 116 nM and 99.5 nM.
Taken in the same sequence, the figures for `CC1CCC(Oc2c(N3CCN(S(=O)(=O)CCCF)CC3)cnn(-c3cccc(Cl)c3)c2=O)C1` (centres unmarked) [1761Z] were 136 nM and 312 nM.
For the molecule `COc1ccc(CS(=O)(=O)N2CCN(c3cnn(-c4cc(F)cc(F)c4)c(=O)c3OCC3(C)CC3)CC2)cc1N` [1864Z], the IC50 against glucan synthase [1] is 104 nM; at glucan synthase [2], 86.9 nM.
Taken in the same sequence, the figures for `Cc1cc(CS(=O)(=O)N2CCN(c3cnn(-c4cccc(Cl)c4)c(=O)c3OCC3(C)CC3)CC2)ccc1N` [1869Z] were 53.8 nM and 143 nM.
For `Cc1cc(CS(=O)(=O)N2CCN(c3cnn(-c4cc(F)cc(F)c4)c(=O)c3OCC3(C)CC3)CC2)ccc1N` [1870Z] the same measures were 53.6 nM and 125 nM.
Taken in the same sequence, the figures for `CC1(COc2c(N3CCN(S(=O)(=O)Cc4ccc5ncoc5c4)CC3)cnn(-c3cc(F)cc(F)c3)c2=O)CC1` [1891Z] were 87.5 nM and 122 nM.
Take `Cc1nc2ccc(CS(=O)(=O)N3CCN(c4cnn(-c5cc(F)cc(F)c5)c(=O)c4OCC4(C)CC4)CC3)cc2o1` [1898Z]: the values for the IC50 at glucan synthase [1] and on glucan synthase [2] were 85.4 nM and 102 nM, respectively.
Take `CC1(COc2c(N3CCN(S(=O)(=O)Cc4cc(N)ccc4F)CC3)cnn(-c3cccc(Cl)c3)c2=O)CC1` [1904Z]: the figures for the IC50 against glucan synthase [1] and at glucan synthase [2] were 107 nM and 142 nM, respectively.
For `COCCNc1cccc(CS(=O)(=O)N2CCN(c3cnn(-c4cccc(Cl)c4)c(=O)c3OCC3(C)CC3)CC2)c1` [1951Z] the same measures were 99.6 nM and 83 nM.
Taken in the same sequence, the figures for `CNc1cccc(CS(=O)(=O)N2CCN(c3cnn(-c4cccc(Cl)c4)c(=O)c3OCC3(C)CC3)CC2)c1` [1969Z] were 215 nM and 215 nM.
Taken in the same sequence, the figures for `O=c1c2c(cnn1-c1cc(F)cc(F)c1)N1CCN(CC1)S(=O)(=O)/C=C/CCCCCCCCO2` [2022Z] were 78.6 nM and 157 nM.
Take `COc1cccc(CS(=O)(=O)N2CCN(c3cnn(-c4cccc(Cl)c4)c(=O)c3OCC3(C)CC3)CC2)c1N` [Compound 1574ZI]: the IC50 against glucan synthase [1] and at glucan synthase [2] was 87.1 nM in each case.
Take `CC1(COc2c(N3CCN(S(=O)(=O)Cc4ccc(N)c(Cl)c4)CC3)cnn(-c3cc(F)cc(F)c3)c2=O)CC1` [Compound 1574Zo]: the IC50 was 51.7 nM at glucan synthase [1] and 69 nM at glucan synthase [2].
Taken in the same sequence, the figures for `CC1(COc2c(N3CCN(S(=O)(=O)Cc4cccc(Cl)c4N)CC3)cnn(-c3cc(F)cc(F)c3)c2=O)CC1` [Compound 1574Zq] were 69 nM and 138 nM.
For `CC1(COc2c(N3CCN(S(=O)(=O)Cc4cccnc4N)CC3)cnn(-c3cccc(Cl)c3)c2=O)CC1` [Compound 1574Zr] the same measures were 110 nM and 239 nM.
